Source: patent publication US5985893A, “Physically stable solid form of a fluoroquinolone” (Pharmacia & Upjohn Company, priority 1996, dated 1999)

Experiments:
Assay type in all cases: physicochemical
[1] = Stability of the solid forms to phase transformation (overall finding); details: variety of conditions
[2] = Dynamic moisture sorption gravimetry (controlled atmosphere microbalance, 25° C)
Description: Dynamic Moisture Sorption Gravimetry
Dynamic moisture uptake is studied on the controlled atmosphere microbalance system at 25° C. About ten mg of sample are equilibrated on the balance for about 2 hours at 2.5% RH. The relative humidity surrounding the sample is increased in increments of 3% RH up to about 92% RH, at which point the RH is decremented in 3% steps to a final RH of about 2.5%. At each relative humidity, the sample is allowed to equilibrate until the mass is stable within 0.0005 mg over a ten minute period. The dry mass is assumed to correspond to the mass of the sample after the initial equilibration period. A controlled atmosphere microbalance is a balance system described by Bergren, M.S. Int. J. Pharm. (1994) Vol. 103, pp. 103-114.
(§1) Detailed description of FIG. 2. […] The ordinate represents the mass change relative to the lowest mass measurement. The abscissa is relative humidity. The circles represent points recorded after sequential increases in the relative humidity and the squares were recorded after decreases in the relative humidity. The horizontal line in the middle of the plot corresponds to the water content of the hypothetical monohydrate of the quinolone.
as §1, with “6.” for “2.”

[3] = Powder XRD after humidity exposure; details: 75% relative humidity, ambient temperature, 5 days
Description: A Rigaku DMAX-A X-ray diffractometer is employed for the acquisition of the powder XRD patterns. The instrument is operated with the copper K-L3 radiation at 1.5406 Å. The major instrumental parameters are set as follows: 40 KV voltage, 30 mA current, beam aperture of 1° and detector aperture (receiving slit) of 0.30°. Patterns are scanned over the range of 3-40° two-theta angles with a scan rate of 1.5° two-theta/min (step size of 0.05° and counting time at 2 second/step). Samples are ground to fine powders and packed into an aluminum tray.

CN[C@@H](C)[C@@H]1CCN(c2c(F)cc3c(=O)c(C(=O)O)cn(C4CC4)c3c2OC)C1 [Form I, [S-(R*,S*)]-1-cyclopropyl-6-fluoro-1,4-dihydro-8-methoxy-7-[3-[1-(methylamino)ethyl]-1-pyrrolidinyl]-4-oxo-3-quinolinecarboxylic acid]
Stability to transformation (in words) [1]: undergo phase transformations under a variety of conditions
Moisture content on desorption ([2]; RH decreased to 10%): about 4.3%
Moisture content on desorption ([2]; RH decreased to 80%): about 4.9%
Moisture plateau ([2]; sorption, 90-92% RH): 7.5-7.7 % w/w
Moisture pickup ([2]; sorption, up to 70% RH): 1%
Diffraction pattern after humidity exposure [3]: does not change after Form I is exposed to 75% relative humidity at ambient temperature for 5 days
